In publication PMC11813147, “Bioactivity assessment of peptides derived from salted jellyfish (Rhopilema hispidum) byproducts” (PLOS ONE, 2025):

What was measured:
[1] = DPPH radical scavenging assay; format: biochemical; details: supplement tables; for DPPH, mean±SD: n = 3
Procedure, shortened: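 Sample mixed with 0.1 mM DPPH in 70% ethanol and kept 30 min in the dark at room temperature; absorbance read at 517 nm. Scavenging % taken from absorbance relative to a reagent-only control; Trolox standard curve gives TEAC as mM TE/mg protein.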

[2] = ABTS radical scavenging assay; format: biochemical; details: for ABTS, mean±SD / ABTS: supplement tables
Procedure, shortened: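 ABTS radical, generated with 2.45 mM potassium persulfate (12-16 h, dark, room temperature) and diluted to A734 0.74 ± 0.03, was mixed with sample 10:190 μL sample:ABTS and kept 7 min in the dark. Scavenging % from absorbance drop at 734 nm versus reagent-only control; TEAC from Trolox standard curve, as mM TE/mg protein.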

[3] = Ferric reducing antioxidant power (FRAP) assay; format: biochemical
Procedure, shortened: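 Sample mixed with FRAP reagent (300 mM acetate buffer pH 3.6, 10 mM TPTZ in 40 mM HCl, 20 mM FeCl3; 10:1:1) and kept 15 min in the dark; absorbance at 593 nm. Values from an FeSO4 standard curve, as mM FeSO4 equivalent per mg protein.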

RAW 264.7 [4] = assay: Anti-inflammation assay: released NO in LPS-stimulated RAW 264.7 (Griess); format: cell-based, Murine; details: then 1 µg/mL LPS 24 h; for Released NO: peptide 10 µg/mL 1 h; for Released NO, mean±SD: peptide 10 µg/mL pre-treatment 1 h, Griess reagent, n = 3
Procedure, shortened: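 RAW 264.7 cells pre-treated 1 h with peptide samples at 10 µg/mL, then stimulated with 1 µg/mL LPS for 24 h. NO released into conditioned medium quantified by Griess reagent against an NO calibration curve; unstimulated cells served as negative control.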

RAW 264.7 [5] = assay: Cytotoxicity assessment (MTT); format: cell-based, Murine; details: peptide 10 µg/mL, 72 h; for Cell viability, mean±SD: relative to untreated cells, n = 3, SD
Procedure, shortened: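 RAW 264.7 murine macrophages seeded at 1 x 10^5 cells/well and exposed to peptides at 10 µg/mL for 72 h. MTT (0.5 mg/mL) added for 3 h, formazan dissolved in DMSO and read at 570/630 nm; viability as % of untreated after blank subtraction.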

[6] = 10 µL sample + 190 µL FRAP solution, 15 min dark, 593 nm, FeSO4 standard curve, mean ± SD, n = 3, SD

Sequence | DPPH, mean±SD [1] | DPPH ([1]; replicate 1) [TE/mg protein] | DPPH ([1]; replicate 2) [TE/mg protein] | DPPH ([1]; replicate 3) [TE/mg protein] | ABTS, mean±SD ([2]; mean ± SD, n = 3) | ABTS ([2]; replicate 1) [TE/mg protein] | ABTS ([2]; replicate 2) [TE/mg protein] | ABTS ([2]; replicate 3) [TE/mg protein] | FRAP [3, 6] | FRAP ([3]; supplement tables, replicate 1) [mM FeSO4/mg protein] | FRAP ([3]; supplement tables, replicate 2) [mM FeSO4/mg protein] | FRAP ([3]; supplement tables, replicate 3) [mM FeSO4/mg protein] | Released NO (RAW 264.7 [4]; replicate 1) [µM] | Released NO (RAW 264.7 [4]; replicate 2) [µM] | Released NO (RAW 264.7 [4]; replicate 3) [µM] | Released NO, mean±SD (RAW 264.7 [4]) | Cell viability, mean±SD (RAW 264.7 [5]) | Cell viability (RAW 264.7 [5]; replicate 1) [%] | Cell viability (RAW 264.7 [5]; replicate 2) [%] | Cell viability (RAW 264.7 [5]; replicate 3) [%] | further results
LGAEGRSP [P13, synthesized peptide identified from jellyfish fraction PUR20C] | 5.85±0.66^D TE/mg protein | 5.23 | 5.76 | 6.56 | 6.51±0.87^H TE/mg protein | 5.91 | 6.11 | 7.51 | 4.82±0.73^H mM FeSO4/mg protein | 4.89 | 5.52 | 4.05 | 35.17 | 35.51 | 37.58 | 36.09 µM | 82.77±1.53% | 81.72 | 82.07 | 84.53 | 
RPLAKIIP [P8, synthesized peptide identified from jellyfish fraction PUR20C] | 2.22 TE/mg protein | 1.78 | 1.78 | 3.11 | 3.11 TE/mg protein | 2.51 | 3.31 | 3.51 | 9.31 mM FeSO4/mg protein | 9.31 | 9.52 | 9.10 | 37.58 | 37.93 | 34.82 | 36.78 µM | 83.71% | 84.35 | 85.23 | 81.54 | 
PMETDDQPNN [P17, synthesized peptide identified from jellyfish fraction PUR20C] | 5.23±0.53^D TE/mg protein | 4.70 | 5.23 | 5.76 | 4.64 TE/mg protein | 4.11 | 4.11 | 5.71 | 6.50±1.59^G mM FeSO4/mg protein | 7.63 | 7.21 | 4.68 | 34.48 | 34.82 | 34.82 | 34.71 µM | 83.65% | 83.47 | 83.83 | 83.65 | 
RARVVPMY [P6, synthesized peptide identified from jellyfish fraction PUR20C] | 3.28 TE/mg protein | 3.11 | 2.84 | 3.90 | 139.87±0.50^A TE/mg protein | 139.34 | 139.94 | 140.34 | 10.78±0.63^D mM FeSO4/mg protein | 10.15 | 11.42 | 10.78 | 34.82 | 35.51 | 39.65 | 36.66 ± 2.61 µM | 85.47% | 92.97 | 82.77 | 80.66 | ABTS radical scavenging activity (TEAC) ([2]; 10 µL sample + 190 µL ABTS solution, 7 min dark, 734 nm, Trolox standard curve, mean ± SD, n = 3): highest activity
PFTMYFLL [P14, synthesized peptide identified from jellyfish fraction PUR20C] | 6.29±0.53^D TE/mg protein | 6.29 | 5.76 | 6.82 | 119.57±1.33^E TE/mg protein | 118.70 | 118.90 | 121.11 | 9.24±1.05 mM FeSO4/mg protein | 10.36 | 9.10 | 8.26 | 32.06 | 31.03 | 34.48 | 32.52±1.76^F µM | 90.09±2.78^B % | 87.69 | 89.45 | 93.14 | 
TDSPAPSETTD [P2, synthesized peptide identified from jellyfish fraction PUR20C] | 2.84 TE/mg protein | 2.31 | 3.11 | 3.11 | 2.91 TE/mg protein | 3.11 | 2.71 | 2.91 | 7.63 mM FeSO4/mg protein | 7.21 | 7.63 | 8.05 | 38.27 | 37.24 | 37.58 | 37.70 µM | 85.70% | 83.12 | 86.46 | 87.52 | 
HSVLTASYRN [P5, synthesized peptide identified from jellyfish fraction PUR20C] | 3.20 TE/mg protein | 2.84 | 3.11 | 3.64 | 123.24±0.75^C TE/mg protein | 124.11 | 122.71 | 122.91 | 8.19 mM FeSO4/mg protein | 7.63 | 9.52 | 7.42 | 34.13 | 33.44 | 36.20 | 34.59 ± 1.43 µM | 87.58% | 92.44 | 89.27 | 81.01 | 
